Data: ChEMBL document CHEMBL3751771, “LpxC Inhibitors as Effective Therapy Against Multidrug Resistant Bacterial Infections” (2015)
In brackets after ≈: the same amount, converted by molar mass.

Legend:
Type in all cases: functional
Pseudomonas aeruginosa = test: Antibacterial activity against Pseudomonas aeruginosa ATCC 27853
Escherichia coli = test: Antibacterial activity against Escherichia coli ATCC 25922
Klebsiella pneumoniae = test: Antibacterial activity against Klebsiella pneumoniae A-651

Compound | MIC (Pseudomonas aeruginosa) [µg/mL] | MIC (Escherichia coli) [µg/mL] | MIC (Klebsiella pneumoniae) [µg/mL]
CCOc1ccc(-c2cc3n(c2)C(=O)N(CC[C@](C)(C(=O)NO)S(C)(=O)=O)C3)c(Cl)c1 | 4 (≈ 8.51 µM) | ≤ 0.063 | 0.125 (≈ 0.266 µM)
COc1ccc(-c2cc3n(c2)C(=O)N(CC[C@](C)(C(=O)NO)S(C)(=O)=O)C3)c(F)c1 | 1 (≈ 2.28 µM) | 0.125 (≈ 0.284 µM) | ≤ 0.063
C[C@@](CCN1Cc2cc(C#Cc3ccc(C4(CN)CC4)cc3)cn2C1=O)(C(=O)NO)S(C)(=O)=O.O=CO | 4 | 8 | 8

The remaining molecules from weak to strong by MIC (Pseudomonas aeruginosa), led by results:

MIC (Pseudomonas aeruginosa) [µg/mL] | MIC (Escherichia coli) [µg/mL] | MIC (Klebsiella pneumoniae) [µg/mL] | Compound
1 (≈ 2.1 µM) | 0.125 (≈ 0.263 µM) | 0.5 (≈ 1.05 µM) | C[C@@](CCN1Cc2cc(C#Cc3ccc(OCCO)cc3)cn2C1=O)(C(=O)NO)S(C)(=O)=O
0.5 (≈ 1.02 µM) | ≤ 0.063 | 0.25 (≈ 0.512 µM) | C[C@@](CCN1Cc2cc(C#Cc3ccc(COC(N)=O)cc3)cn2C1=O)(C(=O)NO)S(C)(=O)=O
0.5 (≈ 1.11 µM) | 0.25 (≈ 0.554 µM) | 0.25 (≈ 0.554 µM) | C[C@@](CCN1Cc2cc(C#CC#C[C@@H]3C[C@@]3(F)CO)cn2C1=O)(C(=O)NO)S(C)(=O)=O
